Results from article PMC8118680 (Chemistry of Heterocyclic Compounds, 2021).

Tests used:
[1] = tested on: influenza virus strain A/Puerto Rico/8/34 (H1N1); type: cell-based; conditions: result in words; for activity against influenza virus strain A/Puerto Rico/8/34 (H1N1): MDCK cells
MDCK cells = assay: Cytotoxicity in MDCK cells, MTT assay; type: cell-based; conditions: result in words

## c1ccc(-n2nnnc2Sc2ncccn2)cc1 [Compound 12a, 2-[(1-Phenyl-1 H -tetrazol-5-yl)sulfanyl]pyrimidine]
[1]
  activity against influenza virus strain A/Puerto Rico/8/34 (H1N1): did not show activity

## O=C(Cn1nnc(-c2ccccc2)n1)NNc1ncccn1 [Compound 7a, N '-(Pyrimidin-2-yl)-2-(5-phenyl-2 H -tetrazol-2-yl)acetohydrazide]
[1]
  activity against influenza virus strain A/Puerto Rico/8/34 (H1N1): did not show activity

## Cc1cc(C)nc(NNC(=O)Cn2nnc(-c3ccccc3)n2)n1 [Compound 7b, N '-(4,6-Dimethylpyrimidin-2-yl)-2-(5-phenyl-2 H -tetrazol-2-yl)acetohydrazide]
[1]
  activity against influenza virus strain A/Puerto Rico/8/34 (H1N1): did not show activity

## Cc1cc(C)nc(Sc2nnnn2CC(=O)O)n1 [Compound 12b, {5-[(4,6-Dimethylpyrimidin-2-yl)sulfanyl]-1 H -tetrazol-1-yl}acetic acid]
[1]; influenza A H1N1 in MDCK cells
  SI relative to the reference drug rimantadine: twice
MDCK cells
  cytotoxicity: significantly lower cytotoxicity
